Data on 1 compound can be found in paper PMC12566971, “Polyprenylated Acylphloroglucinols from Hypericum rochelii and Hypericum olympicum—Cytotoxic Effects on Non-Tumorigenic Cell Lines and Antibacterial Potential” (Pharmaceuticals, 2025).

Values after ≈ are worked out from the molar mass of the structure shown. Read-outs that look alike come from different tables or passages of the source.

For data set [1], the system named is HEK-293 cells. The data set can be described thus: Colony-forming unit assay. It counts as cell-based, human. Conditions: for Percentage of colonies, HEK-293: untreated control = 100%. As for the experimental part:
The CFU was also performed according to ISO 10993-5 [56]. Briefly, the cell lines were seeded at a concentration like for the MTT assay in 6-well plates, treated with the chosen agents and left for a 48 h exposure. Then, the cells were trypsinized, and pre-calculated 20 to 100 µL from the cell suspension was added to a sterile Roswell Park Memorial Institute (RPMI) medium (RPMI-A, Capricorn Scientific), containing 20% of the respective cell culture medium for each cell line but with a final concentration of FBS and L-glutamine of 40–42% and 0.8–1.2 mM, respectively, 0.2% NaHCO3 (S6297, Merck Sigma-Aldrich, Saint Louis, MI, USA), and 0.8% methylcellulose (M0512, Merck Sigma-Aldrich) for viscosity. The viscous cell solution was vortexed for 10 s and dispensed in an equal number of cells per well in 6-well plates (1.2 mL per well) in triplicate for each concentration of treatment. HaCaT and HEK-293 were seeded at a concentration of 2500 cells per mL, CCL-1 and HEPG2—2000 cells per mL, and HGF—1000 cells per mL. The plates were incubated for 6 to 10 days, and when the colonies reached 20 to 50 cells per colony, 100 µL MTT salt solution was added to each well. After half an hour, the stained colonies were counted manually using a microscope.

The test system of data set [2] is HaCaT. Description: MTT assay for cytotoxicity. It counts as cell-based, human. Conditions: for IC50: Homo sapiens, HaCaT. As for the experimental part: (§1) The MTT assay was performed according to Annex C, ISO 10993-5 [56] as in [116]. The panel of non-tumorigenic cell lines consisted of one murine (CCL-1 fibroblasts, which are recommended as a standard for cytotoxicity evaluation in Annex C of ISO 10993-5 [56]) and four human cell lines—HaCaT (immortalized epidermal keratinocytes), HGF (gingival fibroblasts), HEK-293 (embryonic cells from kidney epithelium), and HEPG2 (hepatoblastoma). Although technically a cancer cell line, HEPG2 is non-tumorigenic and retains many hepatocyte-related features in its proteome and a high degree of morphological and functional differentiation, also being a stage one hepatoblastoma.
(§2) CCL-1 was purchased from ATCC and HaCaT and HGF were bought from CLS Cell Lines Service (GmbH, Eppelheim, Germany). HEK-293 and HEPG2 were obtained from DSMZ. The cell culture medium for HaCaT and HEPG2 was Dulbecco’s Modified Eagle Medium (DMEM) with 4.5 g/L glucose (DMEM-HA). For HGF it was DMEM/F-12 (DMEM-12-A, a 1:1 mixture of DMEM and Ham’s F-12 medium). The cell medium for CCL-1 and HEK-293 was Eagle’s Minimum Essential Medium (MEM) (MEM-A). Ten percent heat-inactivated fetal bovine serum (FBS) was added to all media but to the one for the CCL-1 cells, to which 10% heat-inactivated horse serum was added. All media were supplemented with 2 mM L-glutamine and Penicillin/Streptomycin (Pen/Strep, 100×). The cell culture media, sera, and additives were from Capricorn Scientific (Düsseldorf, Germany).
(§3) GraphPad Prism software version 9 (GraphPad Software Inc., San Diego, CA, USA) was used to calculate the IC50 values from the MTT assays as in [116], as well as the MTC values, and the ELISA standard curves. The MTC values are, according to ISO 10993-5, the maximum concentration at which at least 70% of the cells are viable (nonlin fit, range).
(In general: Tetrazolium assays rely on reduction of a dye to a coloured formazan, in cell work by metabolically active cells.)

The subject of data set [3] is HEPG2. The data set can be described thus: MTT assay for cytotoxicity. It counts as cell-based, human. The settings on record: for IC50: Homo sapiens, HepG2. As for the experimental part:
as §1, §2, §3

In data set [4] the test system is human CYP450 3A4 isoform. Description: ELISA for cytochrome P450 3A4 in HEPG2 cells. It counts as in vitro ADME. As for the experimental part:
The effect on CYP450 was tested using the ELISA method on the HEPG2 liver cell line. As mentioned, it has weak or absent expression of the CYP450 superfamily, e.g., CYP3A4, CYP1A2, etc., and that low basal activity makes it a good model for studies of CYP inducers. In addition, these cells have the advantage of immortalization due to their cancerous nature. The standard curves after the two ELISA tests (Figure S7) were prepared as a standard dose–response curve, also called a four-parameter logistic (4-PL) curve.
The effect on human cytochrome P450 3A4, the major member of the CYP450 superfamily of enzymes, which is predominantly found in the liver and metabolizes approximately half of the drugs metabolized by CYP450 enzymes, was assayed using the CYP3A4 ELISA Kit (DL-CYP3A4-Hu, DLdevelop, Kelowna, BC, Canada). Sample selection and initial preparation were as for the total cytochrome ELISA. The experiment was performed according to the manufacturer’s instructions. This assay is a sandwich enzyme immunoassay based on the binding of CYP3A4 in standards and samples to a biotin-conjugated antibody specific for CYP3A4. […] The reaction was stopped by adding sulfuric acid solution, and the plate was read at 450 nm on a microplate reader ELx800 (BioTek Instruments, Inc.). The CYP3A4 concentration was determined by comparing the O.D. of the samples with the standard curve.
(In general: An ELISA detects its analyte on a solid surface through an enzyme-linked reagent.)

Data set [5] relates to Lactiplantibacillus plantarum. Description: MIC evaluation on lactobacilli (broth microdilution). In kind it is cell-based. As for the experimental part:
(§4) The MIC and MBC assessment on the pathogenic bacteria and the candidate probiotic lactic acid bacteria was carried out by the broth microdilution assay (BMD) and the agar plate assay, respectively, as described in [4]. The metabolic (dehydrogenase) activity of the lactic acid bacteria was assessed as described in [4]. Lactobacilli of different origins from the collection of Laboratory “Lactic Acid Bacteria and Probiotics”, the Stephan Angeloff Institute of Microbiology, Bulgarian Academy of Sciences (Sofia, Bulgaria), were selected (Table 13). The strains had been assessed previously, as candidate probiotics, according to the in vitro criteria recommended by the EFSA and the WHO guidelines. They were stored at −20 °C in MRS broth (Merck Group, Darmstadt, Germany) supplemented with 20% v/v sterile glycerol. Prior to the experiments, lactobacilli were subcultured twice in MRS broth (GM369, HiMedia, Mumbai, India) at 37 °C. An overnight exponential-phase culture (5% v/v inoculum) was used for the tests.
A general note: Dilution methods test growth across graded concentrations, often in twofold steps.

Data set [6] relates to Limosilactobacillus fermentum. The description is as above. It counts as cell-based. The protocol:
as §4

For orientation: IC50 means the concentration needed to halve the response being measured. A higher IC50 goes with a need for much substance. One may read the MIC as the lowest concentration that inhibits growth of the organism. With `CC(C)=CCCC1(C)C(CC=C(C)C)CC2C(=O)C1(C(=O)C(C)C)C(=O)C(CC=C(C)C)=C2O` (centres unmarked) [Olympiforin B], the “Colonies per well for HEK-293 cells” value in data set [1] (1/2 × IC50, 48 h exposure) turned out to be 102; in data set [1] (2 × IC50, 48 h exposure), 80; in data set [1] (IC50, 48 h exposure), 99. The “Percentage of colonies, HEK-293” value came out at 97% in data set [1] (1/2 × IC50), 77% in data set [1] (2 × IC50) and 95% in data set [1] (IC50). The IC50 in data set [2] (MTT assay) is 1.71 µg/mL; in data set [2] (converted to µM), 3.65 µM; in data set [3] (MTT assay) it was 4.5 µg/mL; in data set [3] (converted to µM) it was 9.6 µM. Besides, the “Maximum tolerated concentration (MTC), HaCaT” value in data set [2] (concentration at which at least 70% of cells are viable, ISO 10993-5) is 0.52 µg/mL. Besides, the “Maximum tolerated concentration (MTC), HEPG2” value in data set [3] (at least 70% of cells viable, ISO 10993-5) was determined as 1.54 µg/mL. The “CYP450 3A4, Mean Diff. Co vs. agent (Tukey)” value in data set [4] (2×MIC, control minus treated) turned out to be 0.000325. In addition, the “Induction of CYP450 3A4” value in data set [4] (HEPG2, 24 h, concentrations inhibiting S. aureus) is given as “hardly induce”. The MIC in data set [5] (strain Lpl 11, read-out: MIC, Lpl 11) was 2 µg/mL (≈ 4.27 µM); in data set [5] (strain Lpl 25, read-out: MIC, Lpl 25) it was 2 µg/mL (≈ 4.27 µM); in data set [5] (strain Lpl.AC11S, read-out: MIC, Lpl.AC11S), 2 µg/mL (≈ 4.27 µM); in data set [5] (strain Lpl.L6, read-out: MIC, Lpl.L6), 4 µg/mL (≈ 8.53 µM); in data set [6] (strain Lf53, read-out: MIC, Lf53), 2 µg/mL (≈ 4.27 µM); in data set [6] (strain Lf98, read-out: MIC, Lf98), 2 µg/mL (≈ 4.27 µM).
